What was measured:
[1] = test system: cerebral ischemia induced in rats (MCAO); experiment: Animal cerebral infarct assay (Middle Cerebral Artery Occlusion, MCAO); format: in vivo, rat; settings: for reduce infarct size: rat; for total infarct volume relative to control animals / total ischemic damage relative to control animals: administered I.V. at the time of MCAO; for cerebral edema relative to control animals: administered at the time of MCAO; for cerebral edema relative to controls / total infarct volume relative to controls / total ischemic damage relative to controls: administered at the time of reperfusion
Source text: This assay is used to assess the efficacy of the test agents in protecting the brain against necrosis following cerebral ischemia induced in rats. Middle Cerebral Artery Occlusion (MCAO) is a widely used technique to induce transient focal cerebral ischemia in animal models. […] Furthermore, this model accurately represents the involvement of middle cerebral artery (MCA), the most affected vessel in human stroke, and also allows reperfusion as it happens in humans. MCAO by a two-hour occlusion is used to produce the maximum size of cortical infarction without increased mortality at twenty-four hours.
Male Wistar rats (Hadan, Ind.) weighing 300-350 g were allowed free access to water and commercial rodent diet under standard laboratory conditions. The room temperature was maintained at 20-23° C. and room illumination was on a 12/12-hour light/dark cycle. The rats were acclimatized to the laboratory environment 5 to 7 days prior to the study.
Before surgery, the animals were fasted overnight, but had free access to water. The-rats were anesthetized with 3.0% isoflurane (Aerrane, Front Dodge, Iowa) in […] and the animal's neck was shaved and sterilized before the operation. The animals were subjected to two hours MCAO using a modified intraluminal filament technique. A midline incision on the ventral part of the neck was made to expose external and internal carotid arteries. The right external and common carotid arteries were ligated by a suture (silk 5/0, Carlisle Laboratories, Farmers Branch, Tex.) and the right internal artery was temporarily ligated by a microvascular clip (Fine Science Tool Inc., Foster City, Calif.). A small incision was made in the common carotid artery and a nylon filament, its tip rounded by heating, prepared from a fishing line (Stren Fishing Lines, Wilmington, Del.) was inserted from the right common carotid artery. The filament was advanced into the internal carotid artery 18-20 mm from the point of bifurcation of internal and external arteries and a suture was tightly ligated around the filament. Two hours post occlusion, the animals were re-anesthetized to allow reperfusion for the remaining of the experiment by removal of the filament.
Anesthesia was maintained by inhalation of 3.0% isoflurane in […] throughout the entire procedure. The exterior site of the right femoral vein was shaved and sterilized prior to surgery. A 3 cm incision was made in the right groin region and the femoral vein was isolated. A small incision was made on the femoral vein temporarily ligated with a microvascular clip to introduce and advance a polyethylene (PE-50) catheter (Becton. Dickinson and Co., Sparks, Md.). The catheter was secured in place with suture (silk 5/0, Cailisle Laboratories, Farmers Branch, Tex.). The other end of the catheter was attached to a syringe filled with the heparinized saline for the bolus injection. Using a hemostat a pocket was made subcutaneously on the back of the animal so the PE catheter can be brought up to the exteriorization point at the nape of the neck for either a bolus injection or a continuous injection by an osmotic pump.
A standard rat gavage tube (Popper & Sons Inc, NY) was attached to a 3-cc hypodermic syringe. The animal was held by the shoulder in a vertical position. The feeding tube was placed into the mouth then advanced until it reached the stomach (the approximate insertion length of the tube was measured prior to the feeding). The content of the syringe was slowly delivered, and then the tube is withdrawn.
The animals are sacrificed by CO2 asphyxiation (dry ice) 24 hours post-MCAO. The skull is removed to expose the brain using a small bone cutter and starting from the base of the skull. The brain is removed quickly, rinsed in a chilled saline and placed on a rat brain tissue slicer (ASI instrument, Mich.). Seven 2-mm thick coronal slices are cut from each brain using razor blades. […]

[2] = Evans resorption sterility test for vitamin E; cited from earlier work
[3] = 6 mg/kg, administered IV at MCAO
[4] = 0.60 mg/kg, administered IV at MCAO
[5] = administered at reperfusion (FIG. 2)
[6] = administered at the time of MCAO (FIG. 1)
[7] = at the same concentration, MCAO assay

`Cc1c(C)c2c(c(C)c1O)CC[C@@](C)(CCC[C@H](C)CCC[C@H](C)CCCC(C)C)O2` (relative stereo) [alpha-tocopherol, [2R-2R*(4R*,8R*)]-3,4-dihydro-2,5,7,8-tetramethyl-2-(4,8,12-trimethyltridecyl)-2H-1-benzopyran-6-ol, reference compound] gave a reduce infarct size [1, 3] of 42%.

For `Cc1cc(O)cc2c1O[C@](C)(CCC[C@H](C)CCC[C@H](C)CCCC(C)C)CC2` (relative stereo) [delta-tocopherol, [2R-[2R*(4R*,8R*)]]-3,4-dihydro-2,8-dimethyl-2-(4,8,12-trimethyltridecyl)-2H-1-benzo-pyran-6-ol], the reduce infarct size [1, 4] is given as 52%, the “reduction of total infarct volume compared with alpha-tocopherol” value ([1]; MCAO assay) is given as “more effective” and the “activity relative to natural alpha-tocopherol” value [2] is given as “one hundredth”.

With `Cc1c(O)cc2c(c1C)OC(C)(CCC(=O)O)CC2` (stereo not drawn) [gamma-CEHC, 2,7,8-trimethyl-2-(β-carboxy-ethyl)-6-hydroxy chroman] the “total infarct volume relative to control animals” value [1] was “significantly reduced”, the “total ischemic damage relative to control animals” value [1] was “significantly reduced” and the total infarct size [1, 5] was “able to reduce total infarct size”. The “cerebral edema relative to control animals” value [1] was “reduced”, the total infarct size [1, 6] was “able to reduce total infarct size” and the “cerebral edema relative to controls” value [1] was “reduction”. For the same molecule, the “total infarct volume relative to controls” value [1] was “reduction”, the “total ischemic damage relative to controls” value [1] was “reduction” and the decreased neuronal damage ([1]; drug ranges 0.1-5 mg/kg, IV at MCAO) was 50-65%.

For `Cc1c(O)cc2c(c1C)OC(C)(CCCC(C)CCCC(C)CCCC(C)C)CC2` (centres unmarked) [gamma-tocopherol, 3,4-dihydro-2,7,8-trimethyl-2-(4,8,12-trimethyltridecyl)-2H-1-benzyopyran-6-ol], the reduce infarct size [1, 4] was 81%, the reduce infarct size [1, 3] was 82% and the reduce infarct size ([1]; 10.00 mg/kg by gavage, 3 hours pre-MCAO) was 77%. The “total infarct volume relative to control animals” value [1] was “significantly reduced”, the “total ischemic damage relative to control animals” value [1] was “significantly reduced” and the total infarct size [1, 5] was “able to reduce total infarct size”. For the same molecule, the “cerebral edema relative to control animals” value [1] was “significantly reduced”, the total infarct size [1, 6] was “able to reduce total infarct size” and the “cerebral edema relative to controls” value [1] was “reduction”. For the same molecule, the “total infarct volume relative to controls” value [1] was “reduction”, the “total ischemic damage relative to controls” value [1] was “reduction” and the “reduction of tissue edema compared with alpha- or delta-tocopherol” value [1, 7] was “more effective”. The “reduction of total infarct volume compared with alpha- or delta-tocopherol” value [1, 7] was “more effective”.

From patent publication US7034054B2, “Methods for the prevention and treatment of cerebral ischemia using non-alpha tocopherols” (Galileo Pharmaceuticals, Inc., priority 2000, dated 2006)
